In assay [1] the target is JAK1 (recombinant purified GST-tagged catalytic domain) (Homo sapiens (Human), UniProt P23458). As to the kind of experiment: Jak Biochemical HTRF Assay (JAK1). The conditions noted are these: [ATP] 31.8 μM. The method, boiled down:
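Read-out is the 665/615 nm time-resolved FRET ratio from Eu-pY20 antibody and streptavidin-Dylight 650 bound to phosphorylated biotin-peptide. Reactions ran 120 min at room temperature after ATP start. Inhibition normalized to untreated controls gave IC50 via 4-parameter fit.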

In assay [2] the target is JAK2 (recombinant purified GST-tagged catalytic domain) (Homo sapiens (Human), UniProt O60674). Put plainly: Jak Biochemical HTRF Assay (JAK2). To be noted: [ATP] 8.5 μM.
JAK2 (recombinant purified GST-tagged catalytic domain), sequence (O60674 849-1124): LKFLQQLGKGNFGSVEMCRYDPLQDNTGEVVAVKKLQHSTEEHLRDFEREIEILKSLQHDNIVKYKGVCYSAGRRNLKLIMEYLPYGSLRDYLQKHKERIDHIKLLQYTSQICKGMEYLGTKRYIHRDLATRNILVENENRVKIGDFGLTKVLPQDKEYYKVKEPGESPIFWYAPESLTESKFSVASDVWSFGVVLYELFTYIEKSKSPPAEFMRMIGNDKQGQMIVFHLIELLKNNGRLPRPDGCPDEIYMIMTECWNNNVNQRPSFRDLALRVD

Experimental findings from patent US9957264B2 (Merck Sharp & Dohme Corp., priority 2013, dated 2018) are described below.

JAK1 (recombinant purified GST-tagged catalytic domain), sequence (P23458 875-1153): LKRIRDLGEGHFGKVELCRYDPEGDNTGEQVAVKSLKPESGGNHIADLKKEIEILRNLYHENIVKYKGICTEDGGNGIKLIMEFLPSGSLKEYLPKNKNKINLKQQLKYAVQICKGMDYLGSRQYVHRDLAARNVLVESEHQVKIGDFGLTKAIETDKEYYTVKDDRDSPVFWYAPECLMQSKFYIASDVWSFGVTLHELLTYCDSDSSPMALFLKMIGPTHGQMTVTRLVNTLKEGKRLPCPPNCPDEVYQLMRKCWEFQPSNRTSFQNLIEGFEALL

Consider `CC(C)Oc1ccc(CN2CCC(CC#N)(n3nc(Nc4ccc(S(=O)(=O)N(C)C)cc4)c4c(=O)[nH]ccc43)CC2)cc1` [Example 8-6, 4-[(1-{4-(cyanomethyl)-1-[4-(1methylethoxy)benzyl]piperidin-4-yl}-4-oxo-4,5-dihydro-1H-pyrazolo[4,3-c]pyridin-3-yl)amino]-N,N-dimethylbenzenesulfonamide], for which the half-maximal inhibitory concentration (IC50) is 1.94 nM in assay [1] and 12.4 nM in assay [2].

Regarding `N#CC[C@@]1(n2nc(Nc3ccc(C4(C(F)(F)F)CC4)cc3)c3c(=O)[nH]ccc32)CCCOC1` [Example 5-224, (S)-2-(3-(4-oxo-3-((4-(1-(trifluoromethyl)cyclopropyl)phenyl)amino)-4,5-dihydro-1H-pyrazolo[4,3-c]pyridin-1-yl)tetrahydro-2H-pyran-3-yl)acetonitrile], the IC50 amounted to 0.36 nM in assay [1] and 3 nM in assay [2].

Take `CC(O)(c1ccc(Nc2nn([C@]3(CC#N)CCCOC3)c3cc[nH]c(=O)c23)cc1)C(F)(F)F` (single isomer, unassigned) [Example 5-110, {(3S)-3-[4-oxo-3-({4-[(1S or 1R)-2,2,2-trifluoro-1-hydroxy-1-methylethyl]phenyl}amino)-4,5-dihydro-1H-pyrazolo[4,3-c]pyridin-1-yl]tetrahydro-2H-pyran-3-yl}acetonitrile]: the IC50 in assay [1] was determined as 0.16 nM; in assay [2], 0.59 nM.

Turning to `CN(C)S(=O)(=O)c1ccc(Nc2nn(C3(CC#N)CCN(Cc4ccc(C(F)(F)F)cc4)CC3)c3cc[nH]c(=O)c23)cc1` [Example 8-3, 4-[(1-{4-(cyanomethyl)-1-[4-(trifluoromethyl)benzyl]piperidin-4-yl}-4-oxo-4,5-dihydro-1H-pyrazolo[4,3-c]pyridin-3-yl)amino]-N,N-dimethylbenzenesulfonamide], the IC50 worked out at 2.32 nM in assay [1] and 8.62 nM in assay [2].

As for `CN(C)S(=O)(=O)c1ccc(Nc2nn([C@]3(CC#N)CC[C@@H](C(=O)OC(C)(C)C)OC3)c3cc[nH]c(=O)c23)cc1` [Example 5-43, (2S,5S)-tert-butyl 5-(cyanomethyl)-5-(3-((4-(N,N-dimethylsulfamoyl)phenyl)amino)-4-oxo-4,5-dihydro-1H-pyrazolo[4,3-c]pyridin-1-yl)tetrahydro-2H-pyran-2-carboxylate], the IC50 is 0.07 nM in assay [1] and 0.14 nM in assay [2].

As for `CC(C)(C)OC(=O)N1CCC(CC#N)(n2nc(Nc3ccc([C@@]4(C(F)(F)F)CCCCN4)cc3)c3c(=O)[nH]ccc32)CC1` (single isomer, unassigned) [Example 21-17, (R or S)-tert-butyl 4-(cyanomethyl)-4-(4-oxo-3-(4-(2-(trifluoromethyl)piperidin-2-yl)phenylamino)-4,5-dihydropyrazolo[4,3-c]pyridin-1-yl)piperidine-1-carboxylate], the half-inhibitory concentration (IC50) in assay [1] turned out to be 0.63 nM; in assay [2], 0.58 nM.

Turning to `CC(C)(C)OC(=O)[C@H]1CC[C@@](CC#N)(n2nc(Nc3ccc([C@@H](N)C(F)(F)F)cc3)c3c(=O)[nH]ccc32)CO1` (single isomer, unassigned) [Example 5-50, (2R,5S)-tert-butyl 5-(3-((4-((R or S)-1-amino-2,2,2-trifluoroethyl)phenyl)amino)-4-oxo-4,5-dihydro-1H-pyrazolo[4,3-c]pyridin-1-yl)-5-(cyanomethyl) tetrahydro-2H-pyran-2-carboxylate], the IC50 in assay [1] amounted to 11.8 nM; in assay [2], 34.5 nM.

Regarding `CC(C)(C)OC(=O)N1CCC(CC#N)(n2nc(Nc3ccc(S(=O)(=O)C(F)(F)F)cc3)c3c(=O)[nH]ccc32)CC1` [Example 5-76, tert-butyl 4-(cyanomethyl)-4-[4-oxo-3-({4-[(trifluoromethyl)sulfonyl]phenyl}amino)-4,5-dihydro-1H-pyrazolo [4,3-c]pyridin-1-yl] piperidine-1-carboxylate], the figures for the half-inhibitory concentration (IC50) in assay [1] and in assay [2] were 0.9 nM and 7.89 nM, respectively.

Turning to `CN(C)S(=O)(=O)c1ccc(Nc2nn([C@@]3(CC#N)COCC[C@H]3F)c3cc[nH]c(=O)c23)cc1` (single isomer, unassigned) [Example 5-181, 4-({1-[(3S,4R or 3S,4R)-3-(cyanomethyl)-4-fluorotetrahydro-2H-pyran-3-yl]-4-oxo-4,5-dihydro-1H-pyrazolo[4,3-c]pyridin-3-yl}amino)-N,N-dimethylbenzene-sulfonamide], the IC50 in assay [1] was determined as 0.29 nM; in assay [2] it was 0.95 nM.

As for `CC(C)(C)N[C@@H](c1ccc(Nc2nn([C@]3(CC#N)CCOC[C@@H]3F)c3cc[nH]c(=O)c23)cc1)C(F)(F)F` (single isomer, unassigned) [Example 5-270, 2-((3R,4R or 3S,4S)-4-(3-((4-((S or R)-1-(tert-butylamino)-2,2,2-trifluoroethyl)phenyl)amino)-4-oxo-4,5-dihydro-1H-pyrazolo[4,3-c]pyridin-1-yl)-3-fluorotetrahydro-2H-pyran-4-yl)acetonitrile], the IC50 in assay [1] came to 0.12 nM; in assay [2], 0.13 nM.

For the molecule `CC(C)C(C)(C)S(=O)(=O)c1ccc(Nc2nn([C@]3(CC#N)CCCOC3)c3cc[nH]c(=O)c23)cc1` [Example 5-192, {(3S)-3-[4-oxo-3-({4-[(1,1,2-trimethylpropyl)sulfonyl]phenyl}amino)-4,5-dihydro-1H-pyrazolo[4,3-c]pyridin-1-yl]tetrahydro-2H-pyran-3-yl}acetonitrile], the IC50 in assay [1] worked out at 0.17 nM; in assay [2], 0.3 nM.

With `CC(C)(C)OC(=O)N1CCC(CC#N)(n2nc(NC3CCC3)c3c(=O)[nH]ccc32)CC1` [Example 2-3, tert-butyl 4-(cyanomethyl)-4-[3-(cyclobutylamino)-4-oxo-4,5-dihydro-1H-pyrazolo[4,3-c]pyridin-1-yl]piperidine-1-carboxylate], the figures for the IC50 in assay [1] and in assay [2] were 67.6 nM and greater than 1500 nM, respectively.

On to `CC(O)(c1ccc(Nc2nn([C@]3(CC#N)CCCOC3)c3cc[nH]c(=O)c23)cc1)C(F)(F)F` (single isomer, unassigned) [Example 5-111, {(3S)-3-[4-oxo-3-({4-[(1R or 1S)-2,2,2-trifluoro-1-hydroxy-1-methylethyl]phenyl}amino)-4,5-dihydro-1H-pyrazolo[4,3-c]pyridin-1-yl]tetrahydro-2H-pyran-3-yl}acetonitrile], for which the IC50 stood at 0.09 nM in assay [1] and 0.35 nM in assay [2].

For `N#CC[C@]1(n2nc(Nc3ccc(Cl)cc3)c3c(=O)[nH]ccc32)CCOC1` (single isomer, unassigned) [Example 5-242, [(3S or 3R)-3-{3-[(4-chlorophenyl)amino]-4-oxo-4,5-dihydro-1H-pyrazolo[4,3-c]pyridin-1-yl}tetrahydrofuran-3-yl]acetonitrile], the half-maximal inhibitory concentration (IC50) came out at 14 nM in assay [1] and 130 nM in assay [2].

On to `CN(C)S(=O)(=O)c1ccc(Nc2nn(C3(CC#N)CCN(Cc4ccccc4F)CC3)c3cc[nH]c(=O)c23)cc1` [Example 8-9, 4-({1-[4-(cyanomethyl)-1-(2-fluorobenzyl)piperidin-4-yl]-4-oxo-4,5-dihydro-1H-pyrazolo[4,3-c]pyridin-3-yl}amino)-N,N-dimethylbenzenesulfonamide], for which the IC50 in assay [1] was 0.19 nM; in assay [2], 0.28 nM.
